According to USRE50663E1, “Heterocycle derivatives as pesticides” (Bayer Aktiengesellschaft, priority 2017, dated 2025):

Experiments:
Type in all cases: in vivo
[1] = test system: caterpillars of the cotton bollworm (Heliothis armigera); test: Comparative Heliothis armigera spray test (HELIAR); conditions: Helicoverpa armigera, 168 h, 7 dat, read-out: % efficacy
Experimental: (§1) Solvent: 14 parts by weight of dimethylformamide
(§2) Emulsifier: alkylaryl polyglycol ether
(§3) To produce a suitable active compound formulation, 1 part by weight of active compound is dissolved with the specified parts by weight of solvent and made up to the desired concentration with water containing an emulsifier concentration of 1000 ppm. To produce further test concentrations, the formulation is diluted with emulsifier-containing water. If the addition of ammonium salts or/and penetrants is required, these are each added in a concentration of 1000 ppm to the formulation solution.
Cotton plants (Gossypium hirsutum) are sprayed with an active compound formulation of the desired concentration and, after drying, populated with caterpillars of the cotton bollworm (Heliothis armigera).
(§4) After the desired time, the kill in % is determined. 100% means that all caterpillars have been killed; 0% means that none of the caterpillars have been killed.

[2] = test system: larvae of the diamondback moth (Plutella xylostella); test: Comparative Plutella xylostella spray test (PLUTMA); conditions: 168 h, 7 dat, read-out: % efficacy
Experimental: as §1, §2, §3
Cabbage leaves (Brassica oleracea) are sprayed with an active ingredient formulation of the desired concentration and infected with larvae of the diamondback moth (Plutella xylostella).
as §4

[3] = test system: caterpillars of the armyworm (Spodoptera frugiperda); test: Comparative Spodoptera frugiperda spray test (SPODFR); conditions: 168 h, 7 dat, read-out: % efficacy
Experimental: as §1, §2, §3
Cotton leaves (Gossypium hirsutum) are sprayed with an active ingredient formulation of the desired concentration and populated with caterpillars of the armyworm (Spodoptera frugiperda).
as §4

[4] = test system: green peach aphid (Myzus persicae); test: Comparative Myzus persicae drench test (MYZUPE D); conditions: soil, 240 h, 10 dat, read-out: % efficacy
Experimental: (§5) Solvent: 7 parts by weight of dimethylformamide
(§6) Emulsifier: 2 parts by weight of alkylaryl polyglycol ether
(§7) To produce a suitable active ingredient formulation, 1 part by weight of active ingredient is mixed with the specified amounts of solvent and emulsifier, and the concentrate is diluted with water to the desired concentration, it being necessary to take into account the volume of soil which is drenched. It should be ensured that a concentration of 40 ppm of emulsifier in the soil is not exceeded. To produce further test concentrations, water is used for dilution.
Savoy cabbage (Brassica oleracea) in pots with soil and infested by all stages of the green peach aphid (Myzus persicae) is watered with an active ingredient formulation of the desired concentration.
After the desired period of time, the efficacy in % is determined. 100% means that all the aphids have been killed; 0% means that no aphids have been killed.

[5] = test system: larvae of the mustard beetle (Phaedon cochleariae); test: Comparative Phaedon cochleariae spray test (PHAECO); conditions: 168 h, 7 dat, read-out: % efficacy
Experimental: as §1, §2, §3
Cabbage leaves (Brassica oleracea) are sprayed with an active ingredient formulation of the desired concentration and populated with larvae of the mustard beetle (Phaedon cochleariae).
After the desired time, the kill in % is determined. 100% means that all the beetle larvae have been killed; 0% means that no beetle larvae have been killed.

[6] = test system: caterpillars of the armyworm (Spodoptera frugiperda); test: Comparative Spodoptera frugiperda drench test (SPODFR D); conditions: soil, 336 h, 14 dat, read-out: % efficacy
Experimental: as §5, §6, §7
Maize plants (Zea mays) in pots of soil are watered with an active ingredient formulation of the desired concentration and infected with caterpillars of the armyworm (Spodoptera frugiperda).
as §4

[7] = test system: green peach aphid (Myzus persicae); test: Comparative Myzus persicae spray test (MYZUPE); conditions: 144 h, 6 dat, read-out: % efficacy
Experimental: as §1, §2, §3
Bell pepper plants (Capsicum annuum) severely infested with the green peach aphid (Myzus persicae) are treated by spraying with the active ingredient formulation in the desired concentration.
After the desired time, the kill in % is determined. 100% means that all the animals have been killed; 0% means that no animals have been killed.

[8] = test system: L2 larvae of the banded cucumber beetle (Diabrotica balteata); test: Comparative Diabrotica balteata drench test (DIABBA D); conditions: soil, 192 h, 8 dat, read-out: % efficacy
Experimental: as §5, §6, §7
In each case 5 maize corns (Zea mays) are sown into pots filled with earth, and the next day the pots are watered with the active compound preparation of the desired concentration. After one day, about 25 L2 larvae of the banded cucumber beetle (Diabrotica balteata) are added.
After 8 days, the efficacy in % is determined. 100% means that all 5 plants have germinated and grown; 0% means that none of the plants has emerged.

[9] = test system: caterpillars of the fall armyworm (Spodoptera frugiperda); test: Spodoptera frugiperda spray test; conditions: foliar, 168 h, 100 g/ha, after 7 days, maize leaf discs, read-out: efficacy
Experimental: (§8) Solvent: 78.0 parts by weight of acetone • • 1.5 parts by weight of dimethylformamide
as §2
as §3, with “water.” for “water. If the addition of ammonium salts or/and penetrants is required, these are each added in a concentration of 1000 ppm to the formulation solution.”
Leaf discs of maize (Zea mays) are sprayed with an active compound formulation of the desired concentration and, after drying, populated with caterpillars of the fall armyworm (Spodoptera frugiperda).
After 7 days, the efficacy in % is determined. 100% means that all the caterpillars have been killed; 0% means that no caterpillar has been killed.

[10] = test system: larvae of the mustard beetle (Phaedon cochleariae); test: Phaedon cochleariae spray test; conditions: foliar, 168 h, 100 g/ha, after 7 days, Chinese cabbage leaf discs, read-out: efficacy
Experimental: as §8, §2
as §3, with “water.” for “water. If the addition of ammonium salts or/and penetrants is required, these are each added in a concentration of 1000 ppm to the formulation solution.”
Discs of Chinese cabbage leaves (Brassica pekinensis) are sprayed with an active compound formulation of the desired concentration and, after drying, populated with larvae of the mustard beetle (Phaedon cochleariae).
After 7 days, the efficacy in % is determined. 100% means that all the beetle larvae have been killed; 0% means that no beetle larvae have been killed.

[11] = test system: adult cat fleas (Ctenocephalides felis); test: Ctenocephalides felis oral test; conditions: 48 h, 100 ppm in citrated cattle blood, after 2 days, read-out: efficacy (kill)
Experimental: Solvent: dimethyl sulfoxide
To produce a suitable active compound formulation, 10 mg of active compound are mixed with 0.5 ml of dimethyl sulfoxide. Dilution with citrated cattle blood gives the desired concentration.
About 20 unfed adult cat fleas (Ctenocephalides felis) are placed into a chamber which is closed at the top and bottom with gauze. A metal cylinder whose bottom end is closed with parafilm is placed onto the chamber. The cylinder contains the blood/active compound formulation, which can be imbibed by the fleas through the parafilm membrane.
After 2 days, the kill in % is determined. 100% means that all of the fleas have been killed; 0% means that none of the fleas have been killed.

[12] = test system: green peach aphid (Myzus persicae); test: Myzus persicae spray test; conditions: foliar, 120 h, 100 g/ha, after 5 days, Chinese cabbage leaf discs, read-out: efficacy
Experimental: Solvent: 78 parts by weight of acetone • • 1.5 parts by weight of dimethylformamide
as §2
as §3, with “water.” for “water. If the addition of ammonium salts or/and penetrants is required, these are each added in a concentration of 1000 ppm to the formulation solution.”
Discs of Chinese cabbage leaves (Brassica pekinensis) infested by all stages of the green peach aphid (Myzus persicae) are sprayed with an active compound formulation of the desired concentration.
After 5 days, the efficacy in % is determined. 100% means that all the aphids have been killed; 0% means that no aphids have been killed.

[13] = test system: greenhouse red spider mite (Tetranychus urticae); test: Tetranychus urticae spray test, OP-resistant; conditions: 20 g/ha, after 6 days, bean leaf discs
Experimental: as §8, §2
as §3, with “water.” for “water. If the addition of ammonium salts or/and penetrants is required, these are each added in a concentration of 1000 ppm to the formulation solution.”
Discs of bean leaves (Phaseolus vulgaris) infested with all stages of the greenhouse red spider mite (Tetranychus urticae) are sprayed with an active compound formulation of the desired concentration.
After 6 days, the efficacy in % is determined. 100% means that all the spider mites have been killed; 0% means that no spider mites have been killed.

Structure (SMILES) | Emax at 0.16 ppm [1] | Emax at 0.16 ppm [2] | Emax at 0.16 ppm [3] | Emax at 0.8 ppm [4] | Emax at 0.8 ppm ([5]; 0.8 ppm) | Emax at 4 ppm ([5]; 4 ppm) | Emax at 0.16 ppm [6] | Emax at 0.8 ppm [7] | Emax at 0.8 ppm ([8]; 0.8 ppm) | Emax at 4 ppm ([8]; 4 ppm) | pest or weed control at 100 g/ha [9] | pest or weed control at 100 g/ha [10] | pest or weed control at 100 ppm [11] | pest or weed control at 100 g/ha [12] | efficacy [13]
CCS(=O)(=O)c1c(-c2nc3cc(C(F)(F)F)cnc3n2C)nc2cc(C3CC3)ccn12 [known from WO 2016/162318, reference compound] | 10% | 45% | 65% | 0% | 0% | 60% | 40% | 0% | 30% | 70% | – | – | – | – | –
CCS(=O)(=O)c1c(-c2nc3cc(C(F)(F)F)cnc3n2C)nc2cc(C(F)C3CC3)ccn12 (stereo not drawn) [Example I-22] | – | – | – | – | – | – | – | – | – | – | 100% | 100% | 100% | 90% | 90%
